Experimental data from US20250163074A1, “CDK Inhibitors And Their Use As Pharmaceuticals” (Prelude Therapeutics Incorporated, priority 2020, published 2025).

Experiments:
[1] = molecular target: CDK4/Cyclin D1 (Homo sapiens (Human), UniProt P11802); experiment: CDK4/CyclinD1 enzymatic activity assay (TR-FRET); format: biochemical; details: CDK4/CyclinD1 1 nM, ATP 2 mM, read-out: CDK4_D1 IC50
In short: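 Insect-cell CDK4/Cyclin D1 (1 nM) with ULight-4E-BP1 (100 nM) and 2 mM ATP in HEPES pH 7.4 buffer, preincubated 20 min with compound (9-dose, 3-fold dilutions); 10 mM MgCl2 started the reaction, run 60 min at 37 °C. EDTA/Eu-anti-phospho-4E-BP1 TR-FRET detection; IC50 from 4-parameter Hill fit.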

[2] = molecular target: CDK6/Cyclin D1 (Homo sapiens (Human), UniProt Q00534); experiment: CDK6/CyclinD1 enzymatic activity assay (TR-FRET); format: biochemical; details: CDK6/Cyclin D1 1 nM, ATP 250 μM, read-out: CDK6_D1 IC50
CDK6/Cyclin D1, sequence (Q00534 whole entry): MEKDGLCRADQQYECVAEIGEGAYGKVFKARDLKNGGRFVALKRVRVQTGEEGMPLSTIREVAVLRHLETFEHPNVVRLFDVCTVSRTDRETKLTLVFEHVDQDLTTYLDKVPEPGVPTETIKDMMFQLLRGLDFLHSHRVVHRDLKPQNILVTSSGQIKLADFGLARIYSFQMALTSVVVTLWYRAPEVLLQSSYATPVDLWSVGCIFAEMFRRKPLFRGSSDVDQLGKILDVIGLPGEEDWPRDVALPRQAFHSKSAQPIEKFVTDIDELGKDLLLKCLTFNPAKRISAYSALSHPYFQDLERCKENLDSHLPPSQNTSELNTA
CDK6/Cyclin D1, sequence (P24385 whole entry partner): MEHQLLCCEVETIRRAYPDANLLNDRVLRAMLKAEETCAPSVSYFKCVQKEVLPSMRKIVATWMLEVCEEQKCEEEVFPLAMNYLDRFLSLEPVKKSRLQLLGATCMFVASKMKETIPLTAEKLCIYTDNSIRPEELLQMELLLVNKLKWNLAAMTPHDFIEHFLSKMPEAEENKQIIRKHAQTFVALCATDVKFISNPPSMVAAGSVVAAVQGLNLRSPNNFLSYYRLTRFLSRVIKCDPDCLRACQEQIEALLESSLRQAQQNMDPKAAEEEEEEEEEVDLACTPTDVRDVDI
In short: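 Insect-cell-expressed CDK6/Cyclin D1 (1 nM) phosphorylated ULight-4E-BP1 (100 nM) with 250 μM ATP in HEPES pH 7.4 buffer. After 20 min compound preincubation, reactions were started with 10 mM MgCl2 and run 60 min at 37 °C. EDTA-quenched samples were read by TR-FRET with Eu-anti-P-4E-BP1; IC50 from 9-dose 4-parameter fits.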

[3] = test system: MCF7 adenocarcinoma cell line; experiment: Cell proliferation studies in MCF7 cells (ATP-Lite); format: cell-based; details: Homo sapiens, 240 h, 10 days incubation, cell viability by ATP-Lite luminescence, read-out: PROLIFERATION_CTG_MCF7 IC50
In short: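 MCF7 cells, seeded at 100 or 200 cells/well, were exposed for 10 days at 37 °C to a 9-point, 3-fold dilution series in quadruplicate, with media exchange and re-dosing on day 5. Viability was read by ATP-Lite luminescence, normalized to background and DMSO, and fitted for IC50.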

[4] = Brain-to-plasma ratio determination in Sprague-Dawley rats; format: in vivo; details: rat, male Sprague-Dawley rats, four hours after a single oral dose (3, 4, 5, or 10 mg/kg)
Protocol: Example B: Brain-to-Plasma Ratio Determination in Sprague-Dawley Rats
The brain-to-plasma ratio (Kp) was determined in male Sprague-Dawley rats (7-9 weeks old) four hours after a single oral dose. Rats were acclimated and given free access to standard rodent chow and water throughout the entire study. Test articles were formulated as a solution at 0.3, 0.4, 0.5, or 1.0 mg/mL in a vehicle comprised of 10:15:75 (v:v:v) dimethylacetamide (DMA):Solutol HS15:water and delivered orally at a rate of 10 mL/kg to three rats to achieve final doses of 3, 4, 5, or 10 mg/kg, respectively. At 4 hours post-dose, blood samples were collected via jugular vein cannula into tubes containing K2EDTA as the anticoagulant and stored on ice. Blood samples were then centrifuged at 4° C. at 6000 rpm for 5 minutes, and the resulting plasma was placed into tubes and stored frozen at −80° C. until analysis. Whole brain samples were also collected at 4 hours post-dose. The weight of each brain was measured and recorded, and samples were immediately stored on dry ice. Brain samples were then transferred to storage at −80° C. until analysis.
Prior to analysis, brain samples were combined with water (4 mL/1 gram of brain) and homogenized. Prior to injection, plasma and brain homogenate samples and standards were prepared for analysis by precipitation with acetonitrile or 1:1 (v:v) methanol:acetonitrile. Samples were then thoroughly mixed, centrifuged at 4000 rpm for 15 minutes, and the resulting supernatant was transferred for analysis. Test article concentrations in plasma and brain homogenate were then determined by LC-MS/MS and quantified against calibration standards prepared to known concentrations in matched blank (analyte-free) biological matrix. The Kp was then determined by dividing the dilution-corrected brain concentration by the plasma concentration from each rat. A brain density of 1 gram/mL was assumed for all calculations.

CDK4/Cyclin D1, sequence (P11802 whole entry): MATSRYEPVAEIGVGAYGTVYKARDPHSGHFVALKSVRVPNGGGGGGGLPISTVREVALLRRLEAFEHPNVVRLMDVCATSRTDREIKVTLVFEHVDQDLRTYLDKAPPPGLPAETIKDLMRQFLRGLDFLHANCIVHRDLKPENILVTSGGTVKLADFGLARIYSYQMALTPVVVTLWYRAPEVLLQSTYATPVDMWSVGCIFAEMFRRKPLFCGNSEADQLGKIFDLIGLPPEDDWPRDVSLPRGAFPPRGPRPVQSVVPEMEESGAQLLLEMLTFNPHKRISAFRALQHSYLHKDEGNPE
CDK4/Cyclin D1, sequence (P24385 whole entry partner): as the sequence (P24385 whole entry partner) above

Compound | IC50 [1] | IC50 [2] | IC50 [3] | Kp at 4 h [4]
CCN1CC2(C1)CN(c1ccc(Nc3ncc(F)c(-c4ccc5c(c4)C4(CCCC4)N(C)C5=O)n3)nc1)C2 [Example 78, 6′-(2-((5-(6-Ethyl-2,6-diazaspiro[3.3]heptan-2-yl)pyridin-2-yl)amino)-5-fluoropyrimidin-4-yl)-2′-methylspiro[cyclopentane-1,1′-isoindolin]-3′-one] | ≤ 20 nM | 20 to 200 nM | 20 to 200 nM | 1 to 3
CCN1CC2(CC(c3ccc(Nc4ncc(F)c(-c5sc6c(c5C)C(=O)N(C)C65CC5)n4)nc3)C2)C1 [Example 81, 2′-(2-((5-(2-Ethyl-2-azaspiro[3.3]heptan-6-yl)pyridin-2-yl)amino)-5-fluoropyrimidin-4-yl)-3′,5′-dimethylspiro[cyclopropane-1,6′-thieno[2,3-c]pyrrol]-4′(5′H)-one] | ≤ 20 nM | ≤ 20 nM | ≤ 20 nM | < 1
